Measured values taken from patent US20190375786A1, “STABLE PEPTIDES AND METHODS OF USE THEREOF” (Fred Hutchinson Cancer Research Center, priority 2016, published 2019).
Positions of bridges follow the written chain, without caps; N, C: chain ends. Residues, ends and D or L forms follow the SMILES beside them.

Columns and labels:
pepsin = pepsin (Sus scrofa, UniProt P00791); assay: Pepsin digestion resistance in simulated gastric fluid, RP-HPLC; type: in vitro ADME, porcine; set-up: purchased Sigma Aldrich P7012; conditions: 500 U/ml pepsin in SGF pH 1.05, 30 minutes at 37.5° C.; HPLC peak vs untreated peptide
pepsin, sequence (P00791 60-385): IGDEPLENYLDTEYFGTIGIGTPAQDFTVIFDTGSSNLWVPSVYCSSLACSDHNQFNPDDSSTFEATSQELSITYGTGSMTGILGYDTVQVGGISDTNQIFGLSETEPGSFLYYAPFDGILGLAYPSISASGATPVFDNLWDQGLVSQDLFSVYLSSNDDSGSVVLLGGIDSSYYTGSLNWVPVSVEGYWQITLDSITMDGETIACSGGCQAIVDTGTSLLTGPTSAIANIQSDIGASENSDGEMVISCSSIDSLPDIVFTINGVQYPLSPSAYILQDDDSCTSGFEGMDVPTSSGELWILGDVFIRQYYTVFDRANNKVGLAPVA
Method: Peptides were first suspended in 500 ul of ddH2O to a stock concentration of 2 mg/ml. Reactions were prepared by adding 12.5 ug of peptide from the stock solution to a 10 mM solution of DTT in PBS and allowed to incubate at room temperature for 30 minutes. Other reactions were prepared with 12.5 μg peptide with or without 500 U/ml pepsin in simulated gastric fluid (SGF; pH 1.05; […] sodium chloride in 0.7% (v/v) hydrochloric acid) and were incubated for 30 minutes at 37.5° C. Some reactions were quenched with a final concentration of 100 mM Tris base and 10 mM dithiothreitol (DTT). Some reactions were performed in all of the above components, including simulated gastric fluid, pepsin, Tris, and DTT (referred to as SPTD). Reversed phase HPLC (RP-HPLC) was run on samples using an Agilent 1260 HPLC equipped with a C-18 Poroshell 120B column. Sample were analyzed by a gradient method with a mobile phase of Solvent A (water with 0.1% TFA) and Solvent B (acetonitrile with 0.1% TFA). Solvent B was ramped up from 5%-45% of the mobile phase over a period of 10 minutes. Peptides were detected at an absorbance of 214 nm and 280 nm.
(§1) Peptides were first suspended in 500 μl of ddH2O to a stock concentration of 2 mg/ml. Reactions were prepared by adding 12.5 μg of peptide from the stock solution to a 10 mM solution of DTT in PBS and allowed to incubate at room temperature for 30 minutes. Other reactions were prepared with 12.5 μg peptide and 500 U/ml trypsin in 25 mM Tris/75 mM NaCl buffer (pH 7.0) and incubated for 30 minutes at 37.5° C. These reactions were then quenched with 5 μg of soybean trypsin inhibitor (I) and, in some cases, 10 mM dithiothreitol (DTT). Reversed phase HPLC (RP-HPLC) was run on samples using an Agilent 1260 HPLC equipped with a C-18 Poroshell 120B column. Sample were analyzed by a gradient method with a mobile phase of Solvent A (water with 0.1% TFA) and Solvent B (acetonitrile with 0.1% TFA). Solvent B was ramped up from 5%-45% of the mobile phase over a period of 10 minutes. For testing pepsin digestion resistance, reactions were prepared with 12.5 μg peptide with or without 500 U/ml pepsin in simulated gastric fluid (SGF; pH 1.05; […] sodium chloride in 0.7% (v/v) hydrochloric acid) and were incubated for 30 minutes at 37.5° C. For testing temperature resistance, peptides were incubated at 70° C., 75° C., or 100° C. for one hour in 0.5 mM PBS, pelleted, and then the supernatant was analyzed by HPLC.
(§2) This example illustrates peptide stability in biological conditions including in the presence of reducing agents, proteases, oxidative conditions, acidic conditions, and simulated gastric fluids. […] Various peptides were suspended in 500 μl of ddH2O at a stock concentration of 2 mg/ml. This was then diluted in accord with the reaction conditions to prevent adverse buffering effects. Reactions were prepared with 12.5 μg peptide dissolved in solution and, in some samples, additionally suspended in a 10 mM solution of DTT, simulated gastric fluid (pH 1.05; […] sodium chloride in 0.7% (v/v) hydrochloric acid), 500 U pepsin (5000 U/ml pepsin), 50 U trypsin (500 U/ml trypsin) with 1 mg/ml inhibitor in PBS, or a combination of any of these conditions. All protease reactions were incubated for 30 min at room temperature and then quenched. Pepsin reactions were quenched by adding Tris base to a final concentration of 0.075 M. Trypsin reactions were quenched by adding excess soybean trypsin inhibitor. RP-HPLC was then run on samples using an Agilent 1260 HPLC equipped with a C-18 Poroshell 120B column. Sample were analyzed by a gradient method with a mobile phase of Solvent A (water with 0.1% TFA) and Solvent B (acetonitrile with 0.1% TFA). Solvent B was ramped up from 5%-45% of the mobile phase over a period of 10 minutes.
FIG. 20 illustrates high performance liquid chromatograph (HPLC) traces of peptides after pepsin digestion. […]

trypsin = trypsin (Sus scrofa, UniProt P00761); assay: Trypsin digestion resistance of soluble peptide, RP-HPLC; type: in vitro ADME, porcine; set-up: purchased Sigma Aldrich 6567; conditions: 500 U/ml trypsin, 30 minutes at 37.5° C.; HPLC peak vs untreated peptide
trypsin, sequence (P00761 9-231): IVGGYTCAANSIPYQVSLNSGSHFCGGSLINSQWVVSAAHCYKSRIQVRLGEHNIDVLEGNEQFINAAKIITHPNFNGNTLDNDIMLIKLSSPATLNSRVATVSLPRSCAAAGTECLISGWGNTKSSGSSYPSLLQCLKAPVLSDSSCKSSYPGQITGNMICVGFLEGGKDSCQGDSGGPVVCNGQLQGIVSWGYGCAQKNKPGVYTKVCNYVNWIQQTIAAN
Method: as §1, §2
Soluble peptides were exposed to 500 U/mL porcine trypsin and analyzed by HPLC. Protease resistance was also assessed by using SDPR-displaying peptides. The SDPR vector is similar to the a surface display GFP FasL(SDGF) vector, but contains a C-terminal 6×His tag (SEQ ID NO: 180) and all basic or aromatic amino acid residues on the stalk removed. Protease resistance is then tested by incubation of cells displaying peptides with trypsin or chymotrypsin, followed by incubation in 10 mM DTT, and staining with an anti-6×His fluorophore-labeled antibody (“6×His” disclosed as SEQ ID NO: 180). If peptides are uncleaved, they retain the His tag and are stained with by the antibody. A control protease-sensitive knottin peptide (SK) was used as a positive control. Cells displaying peptides were treated with up to 40 μg/ml trypsin or chymotrypsin.
FIG. 21 illustrates high performance liquid chromatograph (HPLC) traces of peptides after trypsin digestion. […] The assay was carried out by reconstituting 1 mg porcine trypsin (Sigma Aldrich 6567) in 1 mL of 1 mM HCl. Trypsin was provided at a concentration of 10,000 u/mL and thus, 5 μl of stock solution was equivalent to using 50 U of trypsin in each reaction. Soybean trypsin inhibitor (SA T9128) was prepared at 1 mg/mL of in H2O. […]

Compound	Resistance to Pepsin (500 U/ml) (pepsin)	Resistance to Trypsin (500 U/ml) (trypsin)
CC[C@H](C)[C@@H]1NC(=O)[C@H](CCCCN)NC(=O)[C@@H](NC(=O)[C@H](CCCCN)NC(=O)[C@@H](NC(=O)[C@H](CC(N)=O)NC(=O)[C@@H](NC(=O)[C@@H](NC(=O)[C@@H](NC(=O)CNC(=O)[C@H](CO)NC(=O)CN)C(C)C)[C@@H](C)CC)[C@@H](C)CC)C(C)C)CSSC[C@@H]2NC(=O)[C@H](CCCCN)NC(=O)CNC(=O)[C@H](Cc3ccccc3)NC(=O)[C@H](CCCNC(=N)N)NC(=O)[C@H](CCSC)NC(=O)CNC(=O)[C@H](C)NC(=O)[C@H](CCCCN)NC(=O)[C@H](CCCCN)NC(=O)[C@@H]3CSSC[C@@H](C(=O)N[C@H](C(=O)N4CCC[C@H]4C(=O)N[C@@H](CCCCN)C(=O)O)[C@@H](C)O)NC(=O)[C@H](Cc4c[nH]cn4)NC(=O)[C@H](CSSC[C@H](NC(=O)[C@H](CCC(N)=O)NC(=O)[C@H](CCCNC(=N)N)NC(=O)[C@H](CO)NC1=O)C(=O)N[C@@H](CC(C)C)C(=O)N[C@@H](CCC(=O)O)C(=O)N1CCC[C@H]1C(=O)N3)NC(=O)[C@H](CCCCN)NC(=O)CNC(=O)[C@H](CC(N)=O)NC(=O)[C@H](CCSC)NC2=O [compound 57]	High (A peptide classified as high indicates that the majority (at least 75%) of the HPLC peak of the treated peptide is still present as compared to the HPLC peak of the untreated peptide)	High (A peptide classified as high indicates that the majority (at least 75%) of the HPLC peak of the treated peptide is still present as compared to the HPLC peak of the untreated peptide)
CC[C@H](C)[C@@H]1NC(=O)[C@@H](NC(=O)[C@H](CC(=O)O)NC(=O)[C@H](CCCCN)NC(=O)[C@H](CCC(=O)O)NC(=O)[C@H](CO)NC(=O)[C@H](CO)NC(=O)CN)CSSC[C@@H]2NC(=O)[C@@H]3CSSC[C@@H](C(=O)N[C@@H](CCCNC(=N)N)C(=O)O)NC(=O)[C@H](CCCNC(=N)N)NC(=O)[C@H](CCCCN)NC(=O)[C@H](CCC(=O)O)NC(=O)[C@@H]4CCCN4C(=O)[C@H](CC(N)=O)NC(=O)[C@H]([C@@H](C)O)NC(=O)CNC(=O)[C@H](CCCNC(=N)N)NC(=O)[C@H](CCCNC(=N)N)NC(=O)[C@H](CO)NC(=O)[C@H](CSSC[C@H](NC(=O)[C@H](CCCNC(=N)N)NC(=O)[C@H](CCC(N)=O)NC(=O)[C@H](CC(C)C)NC(=O)[C@H](Cc4c[nH]cn4)NC(=O)[C@H](CCCCN)NC1=O)C(=O)N[C@@H](CCCNC(=N)N)C(=O)N[C@@H](CCC(=O)O)C(=O)N[C@@H](CC(N)=O)C(=O)N[C@@H](CCCCN)C(=O)N[C@@H](CC(=O)O)C(=O)N3)NC(=O)[C@H](CCCCN)NC(=O)[C@H](CCCCN)NC(=O)[C@H](CO)NC2=O [compound 29] (H-GSSEKDCIKHLQRCRENKDCCSKKCSRRGTNPEKRCR-OH; disulfide 7-21, 14-25, 20-36)	High (A peptide classified as high indicates that the majority (at least 75%) of the HPLC peak of the treated peptide is still present as compared to the HPLC peak of the untreated peptide)	Low (A peptide classified as low indicates that the majority (over 75%) of the HPLC peak of the treated peptide disappeared as compared to the HPLC peak of the untreated peptide)
CC[C@H](C)[C@@H]1NC(=O)[C@H](C)NC(=O)[C@H](CCC(=O)O)NC(=O)[C@H](CCCCN)NC(=O)[C@@H]2CSSC[C@@H](C(=O)N[C@@H](Cc3ccc(O)cc3)C(=O)N3CCC[C@H]3C(=O)O)NC(=O)[C@H](CCCCN)NC(=O)[C@@H]3CSSC[C@H](NC(=O)[C@H](CCC(=O)O)NC(=O)[C@@H]4CCCN4C(=O)[C@H](CO)NC(=O)CNC(=O)[C@H](CCCNC(=N)N)NC(=O)[C@@H](NC(=O)[C@H](CCCCN)NC(=O)[C@@H](NC(=O)[C@H](CC(N)=O)NC(=O)[C@@H](NC(=O)[C@H](Cc4ccccc4)NC(=O)[C@@H](NC(=O)[C@H](CO)NC(=O)CN)C(C)C)[C@@H](C)CC)C(C)C)CSSC[C@H](NC(=O)[C@H](CCCCN)NC(=O)CNC(=O)[C@H](C)NC(=O)[C@H](CO)NC(=O)[C@H](CCCCN)NC(=O)CNC1=O)C(=O)N[C@@H](CCSC)C(=O)N[C@@H](CC(N)=O)C(=O)NCC(=O)N[C@@H](CCCCN)C(=O)N3)C(=O)N[C@@H](CC(C)C)C(=O)N1CCC[C@H]1C(=O)N[C@@H](CCCCN)C(=O)N2 [compound 37] (H-GSVFINVKCRGSPECLPKCKEAIGKSAGKCMNGKCKCYP-OH; disulfide 9-30, 15-35, 19-37)	High (A peptide classified as high indicates that the majority (at least 75%) of the HPLC peak of the treated peptide is still present as compared to the HPLC peak of the untreated peptide)	Low (A peptide classified as low indicates that the majority (over 75%) of the HPLC peak of the treated peptide disappeared as compared to the HPLC peak of the untreated peptide)
CC[C@H](C)[C@H](NC(=O)CNC(=O)[C@@H](NC(=O)[C@H](CO)NC(=O)[C@@H](NC(=O)[C@H](CO)NC(=O)CN)[C@@H](C)CC)[C@@H](C)CC)C(=O)N[C@@H](CCCCN)C(=O)N[C@H]1CSSC[C@@H]2NC(=O)[C@H](Cc3ccc(O)cc3)NC(=O)CNC(=O)[C@H]([C@@H](C)O)NC(=O)[C@H](Cc3ccccc3)NC(=O)[C@H](Cc3ccc(O)cc3)NC(=O)[C@H](CCCCN)NC(=O)[C@H](CCCNC(=N)N)NC(=O)[C@H]([C@@H](C)CC)NC(=O)[C@H](CCCNC(=N)N)NC(=O)[C@@H]3CSSC[C@@H](C(=O)N[C@@H](CO)C(=O)NCC(=O)O)NC(=O)[C@H](Cc4c[nH]cn4)NC(=O)[C@H](CSSC[C@H](NC(=O)[C@H](CC(C)C)NC(=O)[C@H](CC(=O)O)NC(=O)[C@H]([C@@H](C)CC)NC(=O)[C@H](CO)NC(=O)[C@@H]4CCCN4C(=O)[C@H](CO)NC1=O)C(=O)N[C@@H](CCC(=O)O)C(=O)NCC(=O)N[C@@H](CCC(N)=O)C(=O)N3)NC(=O)[C@H]([C@@H](C)O)NC(=O)[C@H](CC(=O)O)NC(=O)CNC(=O)[C@H](CO)NC2=O [compound 3] (H-GSISIGIKCSPSIDLCEGQCRIRKYFTGYCSGDTCHCSG-OH; disulfide 9-30, 16-35, 20-37)	Moderate (A peptide classified as medium indicates that about half (between 25% and 75%) of the HPLC peak of the treated peptide disappeared as compared to the HPLC peak of the untreated peptide)	Low (A peptide classified as low indicates that the majority (over 75%) of the HPLC peak of the treated peptide disappeared as compared to the HPLC peak of the untreated peptide)
